Read-outs that look alike come from different tables or passages of the source.
Tests used:
[1] = target: soluble guanylate cyclase (sGC) (Homo sapiens (Human), UniProt Q02108+Q02153); experiment: sGC-HEK-cGMP assay run with SNP incubation (HEK WC assay); assay type: cell-based
Procedure, shortened: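 EC50 values derive from concentration-response curves of intracellular cGMP in HEK293 cells, which express sGC endogenously. Compound and sodium nitroprusside were co-incubated 10 min at 37 °C after a 15-min 0.5 mM IBMX step, with 0.1 M HCl lysis and 1% DMSO vehicle.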

[2] = target: T1, Human soluble guanylate cyclase enzyme (hsGC) (Homo sapiens (Human), UniProt Q02108+Q02153); experiment: Purified human sGC enzyme activity assay; assay type: biochemical; conditions: for sGC Enzyme (specific activity at 10 μM) / sGC Enzyme (fold increase at 10 μM without SNP): 10 μM compound; for sGC Enzyme (specific activity at 30 μM) / sGC Enzyme (fold increase at 30 μM without SNP) / sGC Enzyme (fold increase at 30 μM): 30 μM compound; for sGC Enzyme (fold increase at 30 μM): without the addition of SNP
Procedure, shortened: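 Values are fold-change of sGC specific activity, nmoles cGMP per mg enzyme per min, relative to DMSO controls. Reactions: 5 ng human enzyme, 300 μM GTP, 1 mM IBMX, 2 mM MgCl2/DTT, 0.1 M Tris pH 8.0, compound 10 or 30 μM final, 37° C for 30 minutes, methanol quench. cGMP read against a 0.078-10 μM final standard curve.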

[3] = target: T1, Human soluble guanylate cyclase enzyme (hsGC); experiment: Purified human sGC enzyme synergy assay in the presence of 1 μM sodium nitroprusside (SNP); assay type: biochemical; conditions: for sGC Enzyme (fold increase at 10 μM with SNP): 10 μM compound; for sGC Enzyme (fold increase at 30 μM with SNP): 30 μM compound
Procedure, shortened: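 Fold-change in cGMP-forming specific activity (nmol/mg/min) versus DMSO, with 1 μM SNP present throughout. Reactions held 30 min at 37 °C with 10 or 30 μM compound, 5 ng human sGC, 300 μM GTP, 1 mM IBMX and 2 mM MgCl2 at pH 8.0, then stopped with cold methanol.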

[4] = read-out: HEK WC Assay (% Emax at 10 uM/with 10 uM SNP)
[5] = read-out: HEK WC Assay (% Emax at 30 uM/with 10 uM SNP)
[6] = read-out: HEK WC Assay (% Emax at 10 μM/with 10 uM SNP)
[7] = read-out: HEK WC Assay (% Emax at 30 μM/with 10 uM SNP)

T1 sequence (Q02153 whole entry): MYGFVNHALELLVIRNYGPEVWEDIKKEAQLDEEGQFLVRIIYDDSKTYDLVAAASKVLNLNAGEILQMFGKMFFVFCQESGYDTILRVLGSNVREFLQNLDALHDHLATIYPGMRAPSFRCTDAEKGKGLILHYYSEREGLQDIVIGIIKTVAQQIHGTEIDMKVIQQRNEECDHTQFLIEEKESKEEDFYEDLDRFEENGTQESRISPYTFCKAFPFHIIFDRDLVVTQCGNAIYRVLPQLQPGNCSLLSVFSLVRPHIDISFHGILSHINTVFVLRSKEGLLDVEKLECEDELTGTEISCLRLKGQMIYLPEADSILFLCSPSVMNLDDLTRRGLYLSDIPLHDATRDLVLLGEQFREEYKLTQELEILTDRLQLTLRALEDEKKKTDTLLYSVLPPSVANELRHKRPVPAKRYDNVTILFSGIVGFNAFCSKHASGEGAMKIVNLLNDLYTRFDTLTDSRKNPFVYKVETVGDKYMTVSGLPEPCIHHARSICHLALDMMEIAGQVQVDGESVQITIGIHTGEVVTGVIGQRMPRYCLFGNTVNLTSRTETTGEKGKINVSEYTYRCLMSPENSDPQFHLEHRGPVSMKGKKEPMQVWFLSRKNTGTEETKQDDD
T1 sequence (Q02108 whole entry): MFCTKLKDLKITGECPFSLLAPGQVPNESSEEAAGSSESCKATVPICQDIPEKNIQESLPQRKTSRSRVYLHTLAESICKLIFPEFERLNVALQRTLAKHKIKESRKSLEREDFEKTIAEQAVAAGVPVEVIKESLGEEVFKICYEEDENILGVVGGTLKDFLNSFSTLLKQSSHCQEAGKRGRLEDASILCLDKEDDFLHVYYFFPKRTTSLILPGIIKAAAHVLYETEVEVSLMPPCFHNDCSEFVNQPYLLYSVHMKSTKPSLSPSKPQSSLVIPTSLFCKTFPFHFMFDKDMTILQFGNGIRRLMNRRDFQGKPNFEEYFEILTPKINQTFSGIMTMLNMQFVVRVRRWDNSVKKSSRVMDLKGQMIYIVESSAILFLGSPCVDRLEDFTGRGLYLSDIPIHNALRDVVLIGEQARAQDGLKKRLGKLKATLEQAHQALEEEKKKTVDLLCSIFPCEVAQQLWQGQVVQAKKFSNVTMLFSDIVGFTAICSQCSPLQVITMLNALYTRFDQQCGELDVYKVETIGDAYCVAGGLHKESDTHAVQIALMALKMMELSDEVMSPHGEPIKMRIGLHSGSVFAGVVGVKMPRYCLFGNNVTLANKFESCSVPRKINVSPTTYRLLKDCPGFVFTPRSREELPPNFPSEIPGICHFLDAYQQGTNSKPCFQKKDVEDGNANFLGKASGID
soluble guanylate cyclase (sGC), sequence (Q02153 whole entry): as the sequence (Q02153 whole entry) above
soluble guanylate cyclase (sGC), sequence (Q02108 whole entry): as the sequence (Q02108 whole entry) above

SMILES | Emax at 10 µM [1, 4] [%] | Emax at 30 µM [1, 5] [%] | sGC Enzyme (specific activity at 10 μM) [2] | sGC Enzyme (fold increase at 10 μM without SNP) [2] | sGC Enzyme (specific activity at 30 μM) [2] | sGC Enzyme (fold increase at 30 μM without SNP) [2] | sGC Enzyme (fold increase at 10 μM with SNP) ([3]; with 1 μM SNP) | sGC Enzyme (fold increase at 30 μM with SNP) ([3]; with 1 μM SNP) | Emax at 10 µM [1, 6] [%] | Emax at 30 µM [1, 7] [%] | sGC Enzyme (fold increase at 30 μM) [2] | sGC Enzyme (fold increase at 30 μM with SNP) ([3]; with the addition of SNP)
COc1cccc(-c2cc(-c3ccccn3)nn2Cc2ccccc2F)n1 [Compound I-25, 2-(1-(2-fluorobenzyl)-3-(pyridin-2-yl)-1H-pyrazol-5-yl)-6-methoxypyridine] | 0 to 10 | 10 to 20 | C (C = 100 to <200) | A (A = no increase to <2 fold increase) | D (D = 200 to <500) | A (A = no increase to <2 fold increase) | B (B = 2 to <5 fold increase) | C (C = 5 to <10 fold increase) | – | – | – | –
N#Cc1c(-c2ccccn2)nn(Cc2ccccc2F)c1-c1ccccn1 [Compound I-54, 1-(2-fluorobenzyl)-3,5-di(pyridin-2-yl)-1H-pyrazole-4-carbonitrile] | 0 to 10 | 0 to 10 | – | A (A = no increase to <2 fold increase) | – | A (A = no increase to <2 fold increase) | A (A = no increase to <2 fold increase) | A (A = no increase to <2 fold increase) | – | – | – | –
Fc1ccccc1Cn1nc(-c2ccccn2)c(I)c1-c1ccccn1 [Compound I-53] | 0 to 10 | 0 to 10 | – | A (A = no increase to <2 fold increase) | – | A (A = no increase to <2 fold increase) | A (A = no increase to <2 fold increase) | A (A = no increase to <2 fold increase) | – | – | – | –
Cc1cccc(-c2cc(-c3ncccn3)nn2Cc2ccccc2F)n1 [Compound I-70, 2-(1-(2-fluorobenzyl)-5-(6-methylpyridin-2-yl)-1H-pyrazol-3-yl)pyrimidine] | – | – | – | – | – | – | – | – | 0 to 10 | 0 to 10 | A (A = no increase to <2 fold increase) | A (A = no increase to <2 fold increase)
Cc1ccc(-c2cc(-c3ccccn3)nn2Cc2ccccc2F)nc1 [Compound I-56] | 0 to 10 | 0 to 10 | B (B = 50 to <100) | A (A = no increase to <2 fold increase) | B (B = 50 to <100) | A (A = no increase to <2 fold increase) | A (A = no increase to <2 fold increase) | A (A = no increase to <2 fold increase) | – | – | – | –
Cc1cccc(-c2cc(-c3ncccn3)n(Cc3ccccc3F)n2)n1 [Compound I-81, 2-(1-(2-fluorobenzyl)-3-(6-methylpyridin-2-yl)-1H-pyrazol-5-yl)pyrimidine] | – | – | – | – | – | – | – | – | 0 to 10 | 0 to 10 | A (A = no increase to <2 fold increase) | A (A = no increase to <2 fold increase)
Fc1ccccc1Cn1nc(-c2ccccn2)c(Br)c1C1CCC1 [Compound I-64] | 0 to 10 | 0 to 10 | A (A = 0 to <50) | A (A = no increase to <2 fold increase) | B (B = 50 to <100) | A (A = no increase to <2 fold increase) | A (A = no increase to <2 fold increase) | B (B = 2 to <5 fold increase) | – | – | – | –
Nc1nc(-c2cc(-c3ccon3)n(Cc3ccccc3F)n2)ncc1-c1cccnc1 [Compound I-127] | – | – | – | – | – | – | – | – | 60 to 80 | 60 to 80 | C (C = 5 to <10 fold increase) | D (D = 10 to <30 fold increase)
Cc1ccc(-c2c(C#N)c(-c3ncccn3)nn2Cc2ccccc2F)cc1 [Compound I-69, 1-(2-fluorobenzyl)-3-(pyrimidin-2-yl)-5-p-tolyl-1H-pyrazole-4-carbonitrile] | 0 to 10 | 0 to 10 | – | A (A = no increase to <2 fold increase) | – | A (A = no increase to <2 fold increase) | A (A = no increase to <2 fold increase) | A (A = no increase to <2 fold increase) | – | – | – | –
COc1ccc(-c2cc(-c3ccccn3)nn2Cc2ccccc2F)cc1 [Compound I-40] | 0 to 10 | 0 to 10 | C (C = 100 to <200) | A (A = no increase to <2 fold increase) | C (C = 100 to <200) | A (A = no increase to <2 fold increase) | A (A = no increase to <2 fold increase) | B (B = 2 to <5 fold increase) | – | – | – | –
Nc1cc(-c2cccnc2)nc(-c2cc(-c3ccon3)n(Cc3ccccc3F)n2)n1 [Compound I-116] | – | – | – | – | – | – | – | – | 20 to 40 | 20 to 40 | B (B = 2 to <5 fold increase) | C (C = 5 to <10 fold increase)
Fc1ccccc1Cn1nc(-c2ncccn2)cc1-c1ncccn1 [Compound I-13] | 0 to 10 | 0 to 10 | B (B = 50 to <100) | A (A = no increase to <2 fold increase) | C (C = 100 to <200) | A (A = no increase to <2 fold increase) | A (A = no increase to <2 fold increase) | A (A = no increase to <2 fold increase) | – | – | – | –

Results, then the compound that gave them:

Emax at 10 µM [1, 4] [%] | Emax at 30 µM [1, 5] [%] | sGC Enzyme (specific activity at 10 μM) [2] | sGC Enzyme (fold increase at 10 μM without SNP) [2] | sGC Enzyme (specific activity at 30 μM) [2] | sGC Enzyme (fold increase at 30 μM without SNP) [2] | sGC Enzyme (fold increase at 10 μM with SNP) ([3]; with 1 μM SNP) | sGC Enzyme (fold increase at 30 μM with SNP) ([3]; with 1 μM SNP) | Emax at 10 µM [1, 6] [%] | Emax at 30 µM [1, 7] [%] | sGC Enzyme (fold increase at 30 μM) [2] | sGC Enzyme (fold increase at 30 μM with SNP) ([3]; with the addition of SNP) | SMILES
– | – | – | – | – | – | – | – | 60 to 80 | 40 to 60 | B (B = 2 to <5 fold increase) | D (D = 10 to <30 fold increase) | CCOC(=O)c1cnc(-c2cc(-c3ccon3)n(Cc3ccccc3F)n2)nc1N [Compound I-131]
– | – | – | – | – | – | – | – | 0 to 10 | 0 to 10 | A (A = no increase to <2 fold increase) | C (C = 5 to <10 fold increase) | CS(=O)(=O)c1cnc(-c2cc(-c3ccon3)n(Cc3ccccc3F)n2)nc1N [Compound I-120]
– | – | – | – | – | – | – | – | 0 to 10 | 0 to 10 | A (A = no increase to <2 fold increase) | A (A = no increase to <2 fold increase) | COC(=O)Nc1c(N)nc(-c2cc(-c3ccccn3)n(Cc3ccccc3F)n2)nc1N [Compound I-89]
– | – | – | – | – | – | – | – | 20 to 40 | 20 to 40 | B (B = 2 to <5 fold increase) | C (C = 5 to <10 fold increase) | Cn1c(=O)[nH]c2nc(-c3cc(-c4nccs4)n(Cc4ccccc4F)n3)nc(N)c21 [Compound I-96]
– | – | – | – | – | – | – | – | 10 to 20 | 20 to 40 | A (A = no increase to <2 fold increase) | C (C = 5 to <10 fold increase) | Cc1nc2c(N)nc(-c3cc(-c4nccs4)n(Cc4ccccc4F)n3)nc2[nH]1 [Compound I-95]
– | – | – | – | – | – | – | – | 0 to 10 | 0 to 10 | A (A = no increase to <2 fold increase) | A (A = no increase to <2 fold increase) | COC(=O)N(C)c1c(N)nc(-c2cc(-c3ccccn3)n(Cc3ccccc3F)n2)nc1N [Compound I-88]

Source: US10189809B2, “SGC stimulators” (Ironwood Pharmaceuticals, Inc., priority 2010, dated 2019)
